Source: patent publication US5178662A, “Benzaldehyde acetal compounds, preparation process thereof, and herbicidal compositions containing the same as active ingredients” (Mitsui Toatsu Chemicals, Inc., priority 1990, dated 1993)

Assays:
[1] = test system: ALS (acetolactate syntase) from barnyardgrass seedlings; assay: ALS (acetolactate syntase) inhibition test, barnyardgrass enzyme; format: biochemical; conditions: 10,000 ppm (0.5 μg/0.5 ml) of compound; 1 hour at 30° C.; absorbance at 525 nm
Procedure: (§1) To determine the selectivity in enzyme level between crops and weeds, an ALS inhibition test was conducted using pea as a typical broadleaf crop and barnyardgrass as a representative gramineous weeds.
(§2) After seeds of pea and barnyardgrass were allowed to germinate at 25° C. for 8-14 days in a dark place, partially-purified suspensions (Suspensions A) of acetolactate syntase were separately obtained from the seedlings in accordance with the procedures described in the literature, Plant Physiology, 75, 827-831. In a test tube, 0.5 mg of one of test compounds was weighed, followed by the addition of 0.15 ml of a 20 mM K2 HPO4 solution and 0.25 ml of a reaction substrate medium which consisted of 40 mM of K2 HPO4, 40 mM of sodium pyruvate, 1 mM of TPP, 1 mM of MgCl2 and 20 μM of FAD so that 0.4 ml of a reaction solution (Solution B) was prepared. Added to 0.4 ml of Solution B was 0.1 ml of Suspension A. After the resultant mixture was shaken for 1 hour in a thermostat water bath controlled at 30° C., 50 μl of 6N sulfuric acid were added to terminate the reaction.
(§3) Next, the test tube with the reaction-terminated liquid mixture contained therein was transferred into a thermostat water bath controlled at 60° C. and was heated for 15 minutes. Thereafter, 0.5 ml of a 0.5% creatine solution and 0.5 ml of a 5% alkaline α-naphthol solution were added, and the resultant mixture was maintained at 60° C. for 15 minutes. As a result, the test solution developed a pink-to-red color. After the above operation, the absorbance of the test solution at 525 nm was measured by a spectrophotometer (Absorbance 1 of Test Compound).
(§4) Further, the absorbance (Absorbance 2 of Blank) of a solution obtained by subjecting a portion of Solution B to the above procedures without addition of any test compound and the absorbance (Absorbance 3 of sulfuric acid) of another solution obtained by subjecting another portion of Solution B to the above procedures which using 50 μl of 6N sulfuric acid as a test compound were also measured.

[2] = test system: ALS (acetolactate syntase) from pea seedlings; assay: ALS (acetolactate syntase) inhibition test, pea enzyme; format: biochemical; conditions: 10,000 ppm (0.5 μg/0.5 ml) of compound; 1 hour at 30° C.; absorbance at 525 nm
Procedure: as §1, §2, §3, §4

[3] = test system: Amaranth (Amaranthus viridis); assay: Upland soil application test, amaranth; format: in vivo; conditions: 1200 h, soil application one day after seeding, 50 g ai/a, wettable powder, fresh weight on 50th day after spray, read-out: Herbicidal effects Amaranth (Amaranthus viridis)
Procedure: (§5) Resin-made 1/1000-are pots were filled with the soil of an upland field. After they were fertilized, cotton and soybean were seeded and 3 cm soil covering was applied. In addition, amaranth, common lambs-quarters, barnyardgrass, green foxtail, large crabgrass and johnsongrass were seeded and 1 cm soil covering was applied. One day later, a wettable powder prepared from a predetermined amount of each test compound in a similar manner to the procedures described in Formulation Example 1 was diluted with water and then sprayed evenly at an application rate equal to 10 l per are onto the surface of the soil by means of a pressure-operated sprayer. The weeds and crops were allowed to grow in a green house and influence to them were observed on the 50th day after the spray. The degree of damages of each test plant and the degree of injury to each crop were determined by measuring fresh weight in each group and indicated by % calculated according to the following formula. [formula]

common lambsquarters [4] = assay: Upland soil application test, common lambsquarters; format: in vivo; conditions: Chenopodium album, 1200 h; soil application one day after seeding, 50 g ai/a, wettable powder, fresh weight on 50th day after spray; read-out: Herbicidal effects Common lambquarters
Procedure: as §5

[5] = test system: Barnyardgrass (Echinochloa crusgalli); assay: Upland soil application test, barnyardgrass; format: in vivo; conditions: Echinochloa crus-galli, 1200 h; soil application one day after seeding, 50 g ai/a, wettable powder, fresh weight on 50th day after spray; read-out: Herbicidal effects Barnyardgrass (Echinochloa crusgalli)
Procedure: as §5

[6] = test system: Foxtail (Setaria viridis); assay: Upland soil application test, green foxtail; format: in vivo; conditions: 1200 h, soil application one day after seeding, 50 g ai/a, wettable powder, fresh weight on 50th day after spray, read-out: Herbicidal effects Foxtail (Setaria viridis)
Procedure: as §5

[7] = test system: Crabgrass (Digitaria adscendens); assay: Upland soil application test, large crabgrass; format: in vivo; conditions: 1200 h, soil application one day after seeding, 50 g ai/a, wettable powder, fresh weight on 50th day after spray, read-out: Herbicidal effects Crabgrass (Digitaria adscendens)
Procedure: as §5

Johnsongrass [8] = assay: Upland soil application test, johnsongrass; format: in vivo; conditions: Sorghum halepense, 1200 h; soil application one day after seeding, 50 g ai/a, wettable powder, fresh weight on 50th day after spray; read-out: Herbicidal effects Johnsongrass
Procedure: as §5

Soybean (Glycine max) [9] = assay: Upland soil application test, crop injury soybean; format: in vivo; conditions: soil application one day after seeding, 50 g ai/a, wettable powder, fresh weight on 50th day after spray
Procedure: as §5

[10] = test system: Cotton (Gossypium indicum); assay: Upland soil application test, crop injury cotton; format: in vivo; conditions: soil application one day after seeding, 50 g ai/a, wettable powder, fresh weight on 50th day after spray
Procedure: as §5

[11] = test system: Amaranth (Amaranthus viridis); assay: Upland foliar application test, amaranth; format: in vivo; conditions: 960 h, foliar application at stage of 2-3 leaves, 50 g ai/a, emulsion, 40th day after spray, read-out: Herbicidal effects Amaranth (Amaranthus viridis)
Procedure: as §5
(§6) Resin-made 1/1000-are pots were filled with the soil of an upland field. After they were fertilized, cotton and soybean were seeded and 3 cm soil covering was applied. Five days later, amaranth, common lambsquarters, barnyardgrass, green foxtail, large crabgrass and johnsongrass were seeded and 1 cm soil covering was applied. They were allowed to grow in a green house. When each plant grew to the stage of 2-3 leaves, an emulsion formulated from a predetermined amount of each test compound in a similar manner to the procedures described in Formulation Example 11 was diluted with water and then sprayed at a predetermined application rate by means of a pressure-operated sprayer. The application rate was controlled at 5 l per are. Influence to the crops and weeds were observed on the 40th day after the spray of the herbicides. The results are shown in Table 4 in which the degree of damages of each test plant and the degree of injury to each crop are shown in a similar manner to Test 2.

common lambsquarters [12] = assay: Upland foliar application test, common lambsquarters; format: in vivo; conditions: Chenopodium album, 960 h; foliar application at stage of 2-3 leaves, 50 g ai/a, emulsion, 40th day after spray; read-out: Herbicidal effects Common lambquarters
Procedure: as §6

[13] = test system: Barnyardgrass (Echinochloa crusgalli); assay: Upland foliar application test, barnyardgrass; format: in vivo; conditions: Echinochloa crus-galli, 960 h; foliar application at stage of 2-3 leaves, 50 g ai/a, emulsion, 40th day after spray; read-out: Herbicidal effects Barnyardgrass (Echinochloa crusgalli)
Procedure: as §6

[14] = test system: Foxtail (Setaria viridis); assay: Upland foliar application test, green foxtail; format: in vivo; conditions: 960 h, foliar application at stage of 2-3 leaves, 50 g ai/a, emulsion, 40th day after spray, read-out: Herbicidal effects Foxtail (Setaria viridis)
Procedure: as §5, §6

[15] = test system: Crabgrass (Digitaria adscendens); assay: Upland foliar application test, large crabgrass; format: in vivo; conditions: 960 h, foliar application at stage of 2-3 leaves, 50 g ai/a, emulsion, 40th day after spray, read-out: Herbicidal effects Crabgrass (Digitaria adscendens)
Procedure: as §5, §6

Johnsongrass [16] = assay: Upland foliar application test, johnsongrass; format: in vivo; conditions: Sorghum halepense, 960 h; foliar application at stage of 2-3 leaves, 50 g ai/a, emulsion, 40th day after spray; read-out: Herbicidal effects Johnsongrass
Procedure: as §6

Soybean (Glycine max) [17] = assay: Upland foliar application test, crop injury soybean; format: in vivo; conditions: foliar application at stage of 2-3 leaves, 50 g ai/a, emulsion, 40th day after spray
Procedure: as §6

[18] = test system: Cotton (Gossypium indicum); assay: Upland foliar application test, crop injury cotton; format: in vivo; conditions: foliar application at stage of 2-3 leaves, 50 g ai/a, emulsion, 40th day after spray
Procedure: as §5, §6

[19] = test system: johnsongrass emerging from rhizome; assay: Application test on johnsongrass emerging from rhizome; format: in vivo; conditions: foliar application at stage of 4-5 leaves, application rate of active ingredient 20 (unit not given), emulsion, 50th day after spray
Procedure: as §5
Resin-made 1/1000-are pots were filled with the soil of an upland field. After they were fertilized, rhizome of johnsongrass were transplanted to the pots and 3 cm soil covering was applied. They were allowed to grow in a green house. When each johnsongrass grew to the stage of 4-5 leaves, an emulsion formulated from a predetermined amount of each test compound in a similar manner to the procedures described in Formulation Example 11 was diluted with water and then sprayed at a predetermined application rate by means of a pressure-operated sprayer. The application rate was controlled at 5 l per are. The effect of each compound against the johnsongrass emerging from its rhizome was observed on the 50th day after the spray of the herbicides. The results are shown in Table 5 in which the herbicidal effect against johnsongrass is shown in a similar manner to Test 2.

For `CCCCOC(OCCCC)c1ccccc1Oc1nc(OC)cc(OC)n1` [Compound No. 3, 2-(4,6-dimethoxypyrimidin-2-yloxy)benzaldehyde di-n-butylacetal], the “Enzymoreaction inhibition rate (%) Barnyardgrass” value [1] was 100%, the “Enzymoreaction inhibition rate (%) Pea” value [2] was 0% and the pest or weed control at 5000 g/ha [3] was 100%. For the same molecule, the pest or weed control at 5000 g/ha (common lambsquarters [4]) was 100%, the pest or weed control at 5000 g/ha [5] was 100% and the pest or weed control at 5000 g/ha [6] was 100%. The pest or weed control at 5000 g/ha [7] was 100%, the pest or weed control at 5000 g/ha (Johnsongrass [8]) was 100% and the “Crop injury Soybean (Glycine max)” value (Soybean (Glycine max) [9]) was 0%. The “Crop injury Cotton (Gossypium indicum)” value [10] was 0%, the pest or weed control at 5000 g/ha [11] was 100% and the pest or weed control at 5000 g/ha (common lambsquarters [12]) was 100%. For the same molecule, the pest or weed control at 5000 g/ha [13] was 100%, the pest or weed control at 5000 g/ha [14] was 100% and the pest or weed control at 5000 g/ha [15] was 100%. For the same molecule, the pest or weed control at 5000 g/ha (Johnsongrass [16]) was 100%, the “Crop injury Soybean (Glycine max)” value (Soybean (Glycine max) [17]) was 0% and the “Crop injury Cotton (Gossypium indicum)” value [18] was 0%. For the same molecule, the “Herbicidal effect against johnsongrass emerging from rhizome” value (“Herbicidal effect” below) [19] was 100%.

In the case of `CCCCCOC(OCCCCC)c1ccccc1Oc1nc(OC)cc(OC)n1` [Compound No. 4], the “Enzymoreaction inhibition rate (%) Barnyardgrass” value [1] was 100%, the “Enzymoreaction inhibition rate (%) Pea” value [2] was 0% and the pest or weed control at 5000 g/ha [3] was 100%. The pest or weed control at 5000 g/ha (common lambsquarters [4]) was 100%, the pest or weed control at 5000 g/ha [5] was 100% and the pest or weed control at 5000 g/ha [6] was 100%. The pest or weed control at 5000 g/ha [7] was 100%, the pest or weed control at 5000 g/ha (Johnsongrass [8]) was 100% and the “Crop injury Soybean (Glycine max)” value (Soybean (Glycine max) [9]) was 0%. For the same molecule, the “Crop injury Cotton (Gossypium indicum)” value [10] was 0%, the pest or weed control at 5000 g/ha [11] was 100% and the pest or weed control at 5000 g/ha (common lambsquarters [12]) was 100%. It also gave a pest or weed control at 5000 g/ha [13] of 100%, a pest or weed control at 5000 g/ha [14] of 100% and a pest or weed control at 5000 g/ha [15] of 100%. For the same molecule, the pest or weed control at 5000 g/ha (Johnsongrass [16]) was 100%, the “Crop injury Soybean (Glycine max)” value (Soybean (Glycine max) [17]) was 0% and the “Crop injury Cotton (Gossypium indicum)” value [18] was 0%. The “Herbicidal effect” value [19] was 100%.

`CCCCCCOC(OCCCCCC)c1ccccc1Oc1nc(OC)cc(OC)n1` [Compound No. 5, 2-(4,6-dimethoxypyrimidin-2-yloxy)benzaldehyde di-n-hexylacetal] was tested, and the “Enzymoreaction inhibition rate (%) Barnyardgrass” value [1] was 100%, the “Enzymoreaction inhibition rate (%) Pea” value [2] was 0% and the pest or weed control at 5000 g/ha [3] was 100%. For the same molecule, the pest or weed control at 5000 g/ha (common lambsquarters [4]) was 100%, the pest or weed control at 5000 g/ha [5] was 100% and the pest or weed control at 5000 g/ha [6] was 100%. The pest or weed control at 5000 g/ha [7] was 100%, the pest or weed control at 5000 g/ha (Johnsongrass [8]) was 100% and the “Crop injury Soybean (Glycine max)” value (Soybean (Glycine max) [9]) was 0%. For the same molecule, the “Crop injury Cotton (Gossypium indicum)” value [10] was 0%, the pest or weed control at 5000 g/ha [11] was 100% and the pest or weed control at 5000 g/ha (common lambsquarters [12]) was 100%. For the same molecule, the pest or weed control at 5000 g/ha [13] was 100%, the pest or weed control at 5000 g/ha [14] was 100% and the pest or weed control at 5000 g/ha [15] was 100%. The pest or weed control at 5000 g/ha (Johnsongrass [16]) was 100%, the “Crop injury Soybean (Glycine max)” value (Soybean (Glycine max) [17]) was 0% and the “Crop injury Cotton (Gossypium indicum)” value [18] was 0%. The “Herbicidal effect” value [19] was 100%.
